Measurements from patent publication US20230364175A1 (priority 2022, published 2023).
≈ marks a conversion by molar mass, not a printed value. Read-outs that look alike come from different tables or passages of the source.

Columns and labels:
log P of melatonin = type: physicochemical
Text: (§1) In some embodiments, the one or more organic compounds includes cyclodextrin or a cyclodextrin derivative. In some embodiments, the one or more organic compounds includes hydroxypropyl-beta-cyclodextrin (HPBCD). In some embodiments, HPBCD is provided in a concentration ranging from about 0.49 to about 0.55 wt. %, including, for example, 0.50%, 0.51%, 0.52%, 0.53%, and 0.54%. […] The low solubility of melatonin can lead to limited absorption and bioavailability. With the addition of HPBCD, the solubility of melatonin is improved to about 10 mg/mL. In an aqueous solution in which HPBCD is present at a concentration ranging from about 0.49 to about 0.55 wt. %, HPBCD monomers have a hydrodynamic size of 10 nm and aggregates of HPBCD form up to 100 nm in diameter (measured via dynamic light scattering).

physchem = type: physicochemical
Text: as §1

COc1ccc2[nH]cc(CCNC(C)=O)c2c1 [melatonin]
logP (log P of melatonin): 1.6
solubility (physchem): ~100 µg/mL (≈ 0.431 mM)
solubility (physchem; aqueous with cosolvent or surfactant or cyclodextrin): ~10000 µg/mL (≈ 43.1 mM)
